Test results from article PMC4767442 (Oncotarget, 2015).

Columns and labels:
[1] = tested on: MCF-7 cells; test: 59Fe mobilization from cells prelabeled with 59Fe-transferrin; type: cell-based, human; conditions: MCF-7 prelabeled with 59Fe-transferrin, compounds 25 μmol·L^−1, 3 h/37°C
Method: (§1) Iron chelation efficiency of the compounds at a concentration of 10 μmol·L^−1 was determined via 3 methods: (1) the calcein assay; (2) the ability of the ligands to induce ^59Fe mobilization from cells prelabeled with ^59Fe-transferrin; and (3) the efficacy of these agents to inhibit the uptake of ^59Fe from ^59Fe-transferrin [22, 38–40].
(§2) The fluorimetric calcein-AM assay was performed by established methods, as described previously. The Fe chelation efficiency of the metabolites in cells was expressed as a percentage of that of the parent chelator, Dp44mT or DpC (100%). For studies assessing the ability of these agents to induce ^59Fe mobilization and inhibit ^59Fe uptake from ^59Fe-transferrin by cells, human transferrin (Sigma-Aldrich, Germany) was labeled with ^59Fe (PerkinElmer, MA, USA) to generate ^59Fe-transferrin at a final specific activity of 500 pCi/pmol Fe, as previously described. The unbound ^59Fe was removed by exhaustive vacuum dialysis against a large excess of 0.15 M NaCl buffered to pH 7.4 with 1.4% NaHCO3 by standard methods.
(§3) To examine the ability of the studied substances to mobilize ^59Fe from MCF-7 cells or inhibit ^59Fe uptake from ^59Fe-transferrin, established techniques were utilized. For ^59Fe mobilization studies, cells were preincubated with ^59Fe-transferrin (0.75 μmol·L^−1) for 3 h/37°C, washed 4 times at 4°C on ice, and then reincubated with control medium or control medium containing the compounds (25 μmol·L^−1) for 3 h/37°C. The release of ^59Fe from the cells into the overlying medium was then examined by collecting both the cells and overlying medium and assessing ^59Fe levels using a γ-counter. For studies examining the ability of the agents to inhibit ^59Fe uptake from ^59Fe-transferrin, cells were incubated for 3 h/37°C with ^59Fe-transferrin (0.75 μmol·L^−1) in the presence or absence of the agents (25 μmol·L^−1), and then washed 4 times at 4°C on ice. The internalization of ^59Fe by cells was then assessed by incubation for 30 min/4°C with the general protease, Pronase (1 mg/mL), utilizing standard techniques. The amount of internalized ^59Fe in the presence of the agents was expressed as a percentage of ^59Fe internalized by control cells incubated in the presence of control media alone.

[2] = tested on: 3T3 mouse embryo fibroblast line; test: MTT proliferation/viability assay, 3T3; type: cell-based; conditions: 72 h/37°C, mean ± S.D., serum- and pyruvate-free DMEM
Method: (§4) The MCF-7 human breast adenocarcinoma cell line was purchased from the European Collection of Cell Cultures (U.K.). The HL-60 human promyelocytic leukemia cell line, HCT116 human colorectal carcinoma cell line, H9c2 rat heart-derived myoblast cell line and 3T3 mouse embryo fibroblast line, were obtained from the American Type Culture Collection (VA, U.S.A.). Cells were cultured in Dulbecco's modified Eagle's medium (DMEM, Lonza, Switzerland) with or without (for MCF-7 cells only) phenol red, supplemented with 10% heat-inactivated fetal bovine serum (FBS; Lonza, Switzerland), 1% penicillin/streptomycin solution (Lonza, Switzerland) and 10 mM HEPES buffer (pH 7.0-7.6; Sigma-Aldrich, Germany). The HL-60 cell line was maintained in RPMI medium (Sigma-Aldrich, Germany) supplemented with 10% heat-inactivated FBS and 1% penicillin/streptomycin solution. All cell lines were cultured in 75 cm^2 tissue culture flasks (Switzerland) at 37°C in a humidified atmosphere of 5% CO2. Sub-confluent cells or, in the case of HL-60 cells, a cell suspension, were sub-cultured every 3-4 days.
(§5) Cells were seeded in 96-well plates for 24 h/37°C at a density of 5,000 (MCF-7), 10,000 (HL-60), 2,000 (HCT116) and 10,000 (3T3 and H9c2) cells/well. For 3T3 and H9c2 cells, the medium was changed to serum- and pyruvate-free DMEM 24 h prior to the experiments. Anti-proliferative and cytotoxicity effects of the compounds were studied at different concentrations after incubations for 72 h/37°C. Viabilities of cells were determined using MTT assays (Sigma-Aldrich, Germany) according to the manufacturer's instructions on a Tecan Infinite 200M plate reader (Tecan, Austria). The proliferation/viability of treated groups was expressed as a percentage of the untreated controls (100%).

[3] = tested on: MCF-7 cells; test: Inhibition of internalized 59Fe uptake from 59Fe-transferrin; type: cell-based, human; conditions: MCF-7, compounds 25 μmol·L^−1, 3 h/37°C
Method: as §1, §2, §3

[4] = tested on: HL-60 human promyelocytic leukemia cell line; test: MTT proliferation/viability assay, HL-60; type: cell-based; conditions: 72 h/37°C, mean ± S.D.
Method: as §4, §5

[5] = tested on: HCT116 human colorectal carcinoma cell line; test: MTT proliferation/viability assay, HCT116; type: cell-based; conditions: HCT-116, 72 h/37°C, mean ± S.D.
Method: as §4, §5

[6] = tested on: H9c2 rat heart-derived myoblast cell line; test: MTT proliferation/viability assay, H9c2; type: cell-based; conditions: 72 h/37°C, mean ± S.D., serum- and pyruvate-free DMEM
Method: as §4, §5

[7] = tested on: cellular labile iron pools; test: Fluorimetric calcein-AM assay of intracellular iron chelation; type: cell-based; conditions: 10 μmol·L^−1
Method: as §1, §2

[8] = tested on: MCF-7 human breast adenocarcinoma cell line; test: MTT proliferation/viability assay, MCF-7; type: cell-based; conditions: MCF7, 72 h/37°C, mean ± S.D.
Method: as §4, §5

[9] = Post-preparative stability in the autosampler at 10°C; type: physicochemical; conditions: for Post-preparative stability: autosampler 10°C, 24 h
Method: (§6) The UHPLC-MS/MS methods for quantitative assays were validated with respect to selectivity, linearity, precision, accuracy, stability, recovery, matrix effects and dilution integrity (see […]
Supplementary Table 1-3). […]
(§7) Stability was assessed at low, medium and high concentration levels. Long -term stability was assessed for plasma samples at -80°C over a period of 7 days (three aliquots per level; Supplementary Table 3). […]

[10] = Pharmacokinetics after single i.v. administration to rats (plasma, UHPLC-MS/MS); type: in vivo, Wistar rats
Method: Male Wistar rats (230-310 g; n = 22) obtained from Velaz (Czech Republic) were kept in an air-conditioned room under a 12 h light-dark cycle, constant temperature and humidity and had free access to water and a standard laboratory pellet diet for rodents. All animal handling and procedures were approved and supervised by the Animal Welfare Body of the Faculty of Medicine in Hradec Kralove, Charles University in Prague. The investigation conformed to the Guide for the Care and Use of Laboratory Animals.
The rats were anaesthetized with pentobarbital (30 mg^.kg^−1; i.p.) and then the vena jugularis and arteria carotis were prepared for drug administration and blood sample collection, respectively. Both Dp44mT and DpC were dissolved in a mixture of saline, PEG 300 and ethanol (5:4:1, v/v/v) and administered to rats at a dose of 2 mg^.kg^−1, as a slow i.v. bolus. Blood was then collected into EDTA-containing tubes, immediately centrifuged and the plasma kept at −80°C until being analyzed. The blood withdrawn from animals was compensated with an appropriate volume of saline. The animals were sacrificed by pentobarbital overdose.
Initially, for both compounds, rats (n = 2, in each group) were used for the in-vivo investigation of the thiosemicarbazone metabolites and also the preparation of the quantitative analytical method. For the full PK study, 6 rats were used for each compound (group 1) and the blood was sampled at 4, 10, 30, 60, 120, 240 and 360 min post-administration.
Due to the markedly slower elimination of DpC, an additional in-vivo study was performed to appropriately describe the elimination phase of this drug. The conscious rats (n = 8, group 2) were administered DpC (2 mg^.kg^−1) via slow i.v. bolus to the vena saphena. Blood was sampled from the retro-orbital plexus under light ether anesthesia during the following time intervals: 120, 360, 600, 1440 and 1800 min. Plasma samples were treated and analyzed using the analytical methods described below in the Section: UHPLC-MS/MS methods for quantitative assay of the drugs and their metabolites.
Standard non-compartmental analysis was performed implementing Kinetica software (version 4.0, Thermo Fisher Scientific Inc., MA, U.S.A.). […] Maximum concentration (Cmax) and the time to maximum concentration (Tmax) were determined directly from the geometric mean vs. time profiles and from individual profiles. The area under the mean plasma concentration–time curve from zero up to the last sampling interval (AUC0-tlast) was calculated by a combination of the linear and log-linear trapezoidal methods. The area under the mean plasma concentration–time curve from zero up to infinity (AUC) was determined as the sum of the AUC0–tlast and of the extrapolated part (i.e., the ratio of the concentration predicted at the time interval of tlast and the terminal rate constant, λz). The λz was estimated by linear regression of the log transformed concentrations in the terminal part of the curve.
Population pharmacokinetic modeling was performed using non-linear, mixed effect modeling as implemented in Monolix, version 4 (http://wfn.software.monolix.org). Pharmacokinetic parameters were estimated by computing the maximum likelihood estimator of the parameters without any approximation of the model (no linearization). This was performed using the Stochastic Approximation Expectation Maximization (SAEM) algorithm combined with a Markov chain Monte Carlo procedure. The between-animal variability in model parameters were ascribed to an exponential model and a proportional model was used to describe the residual variability. The goodness-of-fit was assessed by using several diagnostic plots (observed and predicted concentrations vs. time; observed concentrations vs. population predictions; weighted residuals vs. time; and weighted residuals vs. predictions). Individual parameter values were obtained as empirical Bayes estimates. […]

[11] = Long-term stability in plasma samples at -80°C; type: in vitro ADME, rat; conditions: for Long-term stability: plasma, -80°C, 7 days
Method: as §6
Linearity was examined over the concentration ranges described in Supplementary Table 1 using a weighted (1/x 2) linear regression in GraphPad Prism 6 (v. 6.04, GraphPad Software […]
as §7

[12] = high concentration level (2.105-3.115 µmol·L-1)
[13] = low concentration level (0.035-0.156 µmol·L-1)
[14] = medium concentration level (0.702-1.558 µmol·L-1)

IC50 [4] | IC50 [5] | IC50 [8] | SMILES | 59Fe mobilization (in words) [1] | IC50 [2] | IC50 [6] | intracellular Fe chelation efficacy (in words) [7] | inhibition of 59Fe uptake from 59Fe-transferrin (in words) [3] | also measured
27.3 ± 3.56 µM | 9.31 ± 1.58 µM | 29.4 ± 8.63 µM | CN(C)C(=O)NN=C(c1ccccn1)c1ccccn1 [Dp44mS, di(2-pyridyl)ketone 4,4-dimethylsemicarbazone] | approximately half as effective as Dp44mT | 139 ± 28.9 µM | 367 ± 63.4 µM | lower ability to bind intracellular Fe than their parent ligands |  | internalized 59Fe uptake from 59Fe-transferrin, % of the control [3]: 64%
> 1000 µM | > 1000 µM | > 1000 µM | O=C(c1ccccn1)c1ccccn1 [DpK, di(2-pyridyl)ketone] | no greater than the control | > 1000 µM | > 1000 µM | lower ability to bind intracellular Fe than their parent ligands | did not have any significant (p>0.05) effect | 
 |  |  | CNC(=S)NN=C(c1ccccn1)c1ccccn1 [Dp4mT, di(2-pyridyl)ketone 4-methyl-3-thiosemicarbazone] |  |  |  |  |  | decomposition on storage (in words) ([9]; 24 h storage in the autosampler at 10°C): No significant decomposition; Post-preparative stability [9, 12]: 95.44%; Post-preparative stability [9, 13]: 100.24%; Post-preparative stability [9, 14]: 111.72%; Cmax ([10]; male, Wistar, rat, plasma, iv, 2 mg/kg, rats, i.v. 2 mg·kg^−1, non-compartmental analysis of geometric mean plasma curves, Dp4mT = metabolite after Dp44mT dosing, read-out: Cmax): 496 nM; Tmax ([10]; male, Wistar, rat, plasma, iv, 2 mg/kg, rats, i.v. 2 mg·kg^−1, non-compartmental analysis, Dp4mT = metabolite after Dp44mT dosing, read-out: Tmax (converted)): 0.167 h; AUC(0-inf) ([10]; male, Wistar, rat, plasma, iv, 2 mg/kg, rats, i.v. 2 mg·kg^−1, non-compartmental analysis, read-out: AUC (zero to infinity)): 0.748 µM·h; half-life ([10]; male, Wistar, rat, plasma, iv, 2 mg/kg, rats, i.v. 2 mg·kg^−1, non-compartmental analysis, read-out: t1/2 (elimination half-life) (converted)): 2 h; AUC(0-t) ([10]; male, Wistar, rat, plasma, iv, 2 mg/kg, read-out: AUC0-tlast): 0.671 µM·h; lamdaz (terminal rate constant of elimination) ([10]; rats, i.v. 2 mg·kg^−1, non-compartmental analysis): 0.346 h⁻¹; Long-term stability [11, 12]: 90.82%; Long-term stability [11, 13]: 94.78%; Long-term stability [11, 14]: 90.83%; decomposition on storage (in words) ([11]; up to 7 days stored at −80°C): No significant decomposition
2.57 ± 0.33 µM | 3.03 ± 0.91 µM | 3 ± 0.81 µM | CN(C(=O)NN=C(c1ccccn1)c1ccccn1)C1CCCCC1 [DpC-S, di(2-pyridyl)ketone 4-cyclohexyl-4-methylsemicarbazone] | comparable to DpC | 12.8 ± 2.87 µM | 5.59 ± 0.82 µM | lower ability to bind intracellular Fe than their parent ligands | marked and similar to DpC | 
